Tests used:
[1] = system: soybeans; assay: Pre-planting sugar application on soybeans, Foxhome; type: in vivo, soybean; conditions: for Yield / Yield Increase Compared to Check: MN
Protocol: (§1) The field trials were conducted simultaneously in two different planting locations for each of the crops. One location was near the community of Foxhome in Wilkin County, Minnesota (hereafter referred to as “Foxhome”) while the second location was near the community of Hickson in Cass County, North Dakota (hereafter referred to as “Hickson”). The Foxhome and Hickson locations are on opposite sides of the Red River along the border of Minnesota and North Dakota and separated by a distance exceeding 40 miles. Generally, the Foxhome location has heavier clay loam soil conditions while Hickson has sandy loam soil conditions.
(§2) At each of the Foxhome and Hickson locations, a total of thirty two (32) treatments were conducted for each crop (sugarbeets, soybeans, corn, wheat). Each treatment was replicated four times arranged in a Randomized Complete Block (RCB) Design in the same field. Each replication consisted of a plot measuring twenty five (25) feet in length and eleven (11) feet in width. In selecting the particular seed types for evaluation, popular commercial varieties to the region were utilized. For the row crops (sugarbeets, soybeans, corn) each replication included a width of six (6) rows with twenty two (22) inch row spacing and having a row length of twenty five (25) feet. The wheat was planted in accordance with standard commercial practices. To reduce/eliminate any treatment impacts between adjacent plots for the crops, only the four (4) interior rows of each plot were treated and evaluated for row crops, while for wheat, only the interior 7.33 feet of each plot were treated and evaluated. With the exception of the treatment program applied to the individual plots, which will be discussed below, conventional commercial growing practices for each planting location were otherwise followed during the field trials. While the individual plots at the same location, Hickson or Foxhome, experienced essentially the same growing conditions throughout the season, there were various differences associated with localized precipitation, general growing conditions, soil classification and the like, which contributed to performance differences between the Hickson and Foxhome locations.
(§3) The treatment regimen at each location for each of the tested crops included two (2) untreated treatments (Treatments 31 and 32) in which no sugar was applied and constitute the control elements. […] Six (6) treatments (Treatments 13-18) included the liquid application of high fructose corn syrup (hereafter “HFCS”) at varying rates. Six treatments (Treatments 19-24) included the liquid application of dextrose (hereafter “LIQDEX”) at varying rates. Six (6) treatments (Treatments 25-30) included the application of powdered cellulose (hereafter “POWCEL”) at varying rates. For the sugar applied in a solid form, granulated or powdered, field application was conducted via conventional broadcast spreading. For the sugar applied in a liquid form, a liquid concentrate was mixed and diluted with water in a tank and a conventional sprayer was configured such that the liquid was sprayed so as to have the same sugar equivalent (measured in pounds/per acre) as the sugar in solid form. Regardless of whether the sugar was applied as a solid or liquid, the sugar was applied directly onto the soil before spring tillage, lightly worked into the ground and followed by planting of the crop seed in the treated ground. A summary of application rates for each plot treatments are contained in Table 7 below and were used consistently with each of the crops (sugarbeets, soybeans, corn, wheat).
(§4) To test the impact of pre-planting application rates and sugar source on soybeans, identical field trials using Syngenta brand soybean seed were conducted at the Foxhome and Hickson locations. Planting of the soybean seed and harvest of the soybeans were conducted on approximately the same dates so as to have essentially the same growing season. […]

[2] = system: soybeans; assay: Pre-planting sugar application on soybeans, Hickson; type: in vivo, soybean; conditions: for Yield / Yield Increase Compared to Check Average: ND
Protocol: as §1, §2, §3, §4

[3] = system: wheat; assay: Pre-planting sugar application on wheat, Hickson; type: in vivo; conditions: ND
Protocol: as §1, §2, §3
(§5) To test the impact of pre-planting application rates and sugar source on wheat, identical field trials using Westbred Mayville wheat seed were conducted at the Foxhome and Hickson locations. Planting of the wheat seed and harvest of the wheat were conducted on the same dates so as to have essentially the same growing season. […]

[4] = system: wheat; assay: Pre-planting sugar application on wheat, Foxhome; type: in vivo; conditions: for Yield / Yield Increase Compared to Check Average: MN
Protocol: as §1, §2, §3, §5

[5] = system: microflora that are present in the soil; assay: Solvita Soil CO2-Burst test of pre-emergent soil samples, soybean trial in Hickson
Protocol: In an attempt to quantify this boost, soil samples were taken during some of the previously discussed trials. These samples were tested using a standard Solvita Soil CO2-Burst Test Kit to generate measurements associated with CO2 respiration which can be used as an indicator of active soil carbon, soil microbial biomass and the potential for nutrient release beneficial to crop production. Generally, the higher the measured levels of CO2, the more advantageous the soil is for crop production.
The results of the CO2-Burst Testing are summarized in Table 17 below (using the replication designations from Table 7): […]

[6] = system: corn; assay: Pre-planting sugar application on corn, Hickson; type: in vivo; conditions: for Yield / Yield Increase Compared to Check Average: ND
Protocol: as §1, §2, §3
To test the impact of pre-planting application rates and sugar source on corn, identical field trials using Peterson Farms brand corn seed were conducted at the Foxhome and Hickson locations. Planting of the corn seed and harvest of the corn were conducted on the same dates so as to have essentially the same growing season. […]

[7] = six rates (25-250 pounds/Acre) per sugar, thirty in all

## OC[C@H]1O[C@@](CO)(O[C@H]2O[C@H](CO)[C@@H](O)[C@H](O)[C@H]2O)[C@@H](O)[C@@H]1O [LIQSUC, sucrose]
[1]; pre-planting 25 pounds/Acre
  Yield: 67.82 Bushels/Acre
  Yield Increase Compared to Check: −1.05%
[1]; pre-planting 50 pounds/Acre
  Yield: 72.08 Bushels/Acre
  Yield Increase Compared to Check: 5.16%
[1]; pre-planting 100 pounds/Acre
  Yield: 71.28 Bushels/Acre
  Yield Increase Compared to Check: 4.00%
[1]; pre-planting 150 pounds/Acre
  Yield: 70.57 Bushels/Acre
  Yield Increase Compared to Check: 2.96%
[1]; pre-planting 200 pounds/Acre
  Yield: 68.33 Bushels/Acre
  Yield Increase Compared to Check: −0.31%
[1]; pre-planting 250 pounds/Acre
  Yield: 72.14 Bushels/Acre
  Yield Increase Compared to Check: 5.25%
[1]; [7]
  number of treatments showing yield improvement compared to check treatment 31: four of the six
[2]; pre-planting 25 pounds/Acre
  Yield: 61.90 Bushels/Acre
  Yield Increase Compared to Check Average: 0.24%
[2]; pre-planting 50 pounds/Acre
  Yield: 61.87 Bushels/Acre
  Yield Increase Compared to Check Average: 0.19%
[2]; pre-planting 100 pounds/Acre
  Yield: 59.52 Bushels/Acre
  Yield Increase Compared to Check Average: −3.61%
[2]; pre-planting 150 pounds/Acre
  Yield: 59.71 Bushels/Acre
  Yield Increase Compared to Check Average: −3.30%
[2]; pre-planting 200 pounds/Acre
  Yield: 61.36 Bushels/Acre
  Yield Increase Compared to Check Average: −0.63%
[2]; pre-planting 250 pounds/Acre
  Yield: 61.03 Bushels/Acre
  Yield Increase Compared to Check Average: −1.17%
[2]; six rates per sugar
  number of treatments showing negative yield benefits compared to check average: four of the six
[3]; pre-planting 25 pounds/Acre
  Yield: 47.09 Bushels/Acre
  Yield Increase Compared to Check: −4.17%
[3]; pre-planting 50 pounds/Acre
  Yield: 53.46 Bushels/Acre
  Yield Increase Compared to Check: 8.79%
[3]; pre-planting 100 pounds/Acre
  Yield: 50.09 Bushels/Acre
  Yield Increase Compared to Check: 1.93%
[3]; pre-planting 150 pounds/Acre
  Yield: 46.03 Bushels/Acre
  Yield Increase Compared to Check: −6.33%
[3]; pre-planting 200 pounds/Acre
  Yield: 48.31 Bushels/Acre
  Yield Increase Compared to Check: −1.69%
[3]; pre-planting 250 pounds/Acre
  Yield: 50.24 Bushels/Acre
  Yield Increase Compared to Check: 2.24%
[4]; pre-planting 25 pounds/Acre
  Yield: 57.25 Bushels/Acre
  Yield Increase Compared to Check Average: −11.65%
[4]; pre-planting 50 pounds/Acre
  Yield: 68.06 Bushels/Acre
  Yield Increase Compared to Check Average: 5.03%
[4]; pre-planting 100 pounds/Acre
  Yield: 67.59 Bushels/Acre
  Yield Increase Compared to Check Average: 4.31%
[4]; pre-planting 150 pounds/Acre
  Yield: 65.84 Bushels/Acre
  Yield Increase Compared to Check Average: 1.60%
[4]; pre-planting 200 pounds/Acre
  Yield: 62.49 Bushels/Acre
  Yield Increase Compared to Check Average: −3.56%
[4]; pre-planting 250 pounds/Acre
  Yield: 63.20 Bushels/Acre
  Yield Increase Compared to Check Average: −2.47%
[4]; [7]
  number of treatments showing yield improvement compared to check average: three of the six
[5]; sugar amount 50 pounds/acre
  CO2 Burst ppm: 49 ppm
  CO2 Increase as Compared to Check Average: 7.69%
[5]; sugar amount 150 pounds/acre
  CO2 Burst ppm: 45 ppm
  CO2 Increase as Compared to Check Average: −1.10%
[5]; sugar amount 250 pounds/acre
  CO2 Burst ppm: 55 ppm
  CO2 Increase as Compared to Check Average: 20.88%
[6]; pre-planting 25 pounds/Acre
  Yield: 163.69 Bushels/Acre
  Yield Increase Compared to Check Average: 5.93%
[6]; pre-planting 50 pounds/Acre
  Yield: 162.57 Bushels/Acre
  Yield Increase Compared to Check Average: 5.21%
[6]; pre-planting 100 pounds/Acre
  Yield: 160.94 Bushels/Acre
  Yield Increase Compared to Check Average: 4.15%
[6]; pre-planting 150 pounds/Acre
  Yield: 165.35 Bushels/Acre
  Yield Increase Compared to Check Average: 7.01%
[6]; pre-planting 200 pounds/Acre
  Yield: 164.24 Bushels/Acre
  Yield Increase Compared to Check Average: 6.29%
[6]; pre-planting 250 pounds/Acre
  Yield: 166.53 Bushels/Acre
  Yield Increase Compared to Check Average: 7.77%
[6]; [7]
  number of treatments showing yield improvement compared to check average: each of their six
